Results from patent US7605170B2, “8-azabicyclo[3.2.1]octane derivatives” (N.V. Organon, priority 2005, dated 2009).

Assays:
Format in all cases: cell-based
[1] = target: T1, human noradrenaline transporter (hNET) (Homo sapiens, UniProt P23975); experiment: Assay of monoamine uptake: inhibition of noradrenaline uptake; settings: MDCK cells expressing hNET; 20 nM [3H]-neurotransmitter mixture; 37° C.; read-out: hNET pEC50 (inhibition of noradrenaline uptake) (converted)
T1 construct: expressed in transfected cells
T1 sequence (P23975 whole entry): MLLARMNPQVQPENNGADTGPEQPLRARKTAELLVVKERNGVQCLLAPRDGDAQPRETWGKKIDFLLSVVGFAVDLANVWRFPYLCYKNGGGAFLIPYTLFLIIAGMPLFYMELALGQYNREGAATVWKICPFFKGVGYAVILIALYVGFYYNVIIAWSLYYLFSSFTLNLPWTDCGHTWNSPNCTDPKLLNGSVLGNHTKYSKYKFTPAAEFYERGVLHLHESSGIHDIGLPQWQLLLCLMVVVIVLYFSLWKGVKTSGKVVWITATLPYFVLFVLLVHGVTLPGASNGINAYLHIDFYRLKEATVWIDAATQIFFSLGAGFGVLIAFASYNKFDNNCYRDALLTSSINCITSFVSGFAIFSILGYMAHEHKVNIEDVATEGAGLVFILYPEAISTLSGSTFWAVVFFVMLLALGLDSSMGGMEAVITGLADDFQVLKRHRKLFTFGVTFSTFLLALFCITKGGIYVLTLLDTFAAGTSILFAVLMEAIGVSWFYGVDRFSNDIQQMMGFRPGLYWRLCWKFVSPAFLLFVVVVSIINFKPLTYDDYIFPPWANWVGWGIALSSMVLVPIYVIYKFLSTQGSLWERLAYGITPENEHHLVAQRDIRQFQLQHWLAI
Description: (§1) The in vitro test for the inhibition of dopamine and serotonin uptake was performed in Chinese Hamster Ovary cells expressing the human dopamine transporter (hDAT) or the human serotonin transporter (hSERT). The in vitro test for the inhibition of noradrenaline uptake was performed in Madin Darby Canine Kidney Cells (MDCK) expressing the human noradrenaline transporter (hNET). Briefly, cell lines stably overexpressing the appropriate human transporter were propagated and plated according to standard cell culture techniques. Following plating, cells were left to adhere for either one or two days. A 6-point serial dilution (normally 1E-5M to 1E-10M) of test and reference compounds was prepared, added to the washed cells and incubated for 5 minutes at ambient temperature for dopamine or serotonin transporter overexpressing and 37° C. for noradrenaline overexpressing cells. Next, a final concentration of 20 nM of appropriate neurotransmitter (mixture of [^3H]-neurotransmitter and non-labelled neurtoransmitter) was added and the cells were incubated for three or five minutes at ambient temperature for dopamine or serotonin transporter overexpressing cells or ten minutes at 37° C. for noradrenaline overexpressing cells. Following termination of the assay, Microscint-20 was added directly to the cells and the amount of radioactivity taken up by the cells was estimated by scintillation counting.
(§2) pEC50 values indicating inhibition of monoamine uptake were calculated using standard curve fitting techniques.

[2] = target: T2, human serotonin transporter (hSERT) (Homo sapiens, UniProt P31645); experiment: Assay of monoamine uptake: inhibition of serotonin uptake; settings: Chinese Hamster Ovary cells expressing hSERT; 20 nM [3H]-neurotransmitter mixture; ambient temperature; read-out: hSERT pEC50 (inhibition of serotonin uptake) (converted)
T2 construct: expressed in transfected cells
T2 sequence (P31645 whole entry): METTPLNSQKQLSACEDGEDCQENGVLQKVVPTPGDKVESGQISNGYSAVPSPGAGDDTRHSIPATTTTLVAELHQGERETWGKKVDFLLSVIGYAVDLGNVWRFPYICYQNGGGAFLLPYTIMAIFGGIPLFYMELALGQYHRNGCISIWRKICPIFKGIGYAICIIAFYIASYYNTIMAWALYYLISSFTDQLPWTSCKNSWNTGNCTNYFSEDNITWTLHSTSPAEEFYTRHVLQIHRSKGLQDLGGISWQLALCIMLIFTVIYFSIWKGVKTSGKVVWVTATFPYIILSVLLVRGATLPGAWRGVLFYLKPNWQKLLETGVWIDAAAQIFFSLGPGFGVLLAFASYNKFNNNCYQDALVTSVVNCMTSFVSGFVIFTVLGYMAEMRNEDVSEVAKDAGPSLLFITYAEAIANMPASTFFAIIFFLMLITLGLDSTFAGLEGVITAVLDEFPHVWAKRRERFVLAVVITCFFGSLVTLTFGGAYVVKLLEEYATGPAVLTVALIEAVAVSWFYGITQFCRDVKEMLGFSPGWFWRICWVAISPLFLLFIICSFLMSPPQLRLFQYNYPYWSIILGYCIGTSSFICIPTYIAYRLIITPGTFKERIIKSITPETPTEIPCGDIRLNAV
Description: as §1, §2

[3] = target: T3, human dopamine transporter (hDAT) (Homo sapiens, UniProt Q01959); experiment: Assay of monoamine uptake: inhibition of dopamine uptake; settings: Chinese Hamster Ovary cells expressing hDAT; 20 nM [3H]-neurotransmitter mixture; ambient temperature; read-out: hDAT pEC50 (inhibition of dopamine uptake) (converted)
T3 construct: expressed in transfected cells
T3 sequence (Q01959 whole entry): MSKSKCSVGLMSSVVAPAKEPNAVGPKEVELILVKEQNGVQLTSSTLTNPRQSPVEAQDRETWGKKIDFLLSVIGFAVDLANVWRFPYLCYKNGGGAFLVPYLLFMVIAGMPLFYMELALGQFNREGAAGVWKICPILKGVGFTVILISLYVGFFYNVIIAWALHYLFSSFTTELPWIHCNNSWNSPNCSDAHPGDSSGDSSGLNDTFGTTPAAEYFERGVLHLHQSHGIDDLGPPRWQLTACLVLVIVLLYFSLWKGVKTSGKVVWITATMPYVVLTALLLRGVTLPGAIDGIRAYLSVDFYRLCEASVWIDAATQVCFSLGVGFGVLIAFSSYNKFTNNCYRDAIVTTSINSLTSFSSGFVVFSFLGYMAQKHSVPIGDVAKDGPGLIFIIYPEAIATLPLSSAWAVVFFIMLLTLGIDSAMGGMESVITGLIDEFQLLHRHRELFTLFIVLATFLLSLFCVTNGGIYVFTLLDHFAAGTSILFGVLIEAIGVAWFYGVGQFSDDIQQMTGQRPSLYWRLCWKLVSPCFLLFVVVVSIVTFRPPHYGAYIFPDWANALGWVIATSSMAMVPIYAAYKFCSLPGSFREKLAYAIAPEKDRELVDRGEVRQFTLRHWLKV
Description: as §1, §2

SMILES | EC50 [1] [µM] | EC50 [2] [µM] | EC50 [3] [µM]
c1ccc(Oc2cccc(O[C@H]3C[C@H]4CC[C@@H](C3)N4)c2)cc1 [III.5, 3-endo-(3-Phenoxyphenoxy)-8-azabicyclo[3.2.1]octane] | 0.1 to 1 | > 1 | < 0.1
FC(F)(F)c1ccccc1-c1cccc(O[C@@H]2C[C@H]3CC[C@@H](C2)N3)c1 [IV.8, 3-exo-(2′-Trifluoromethylbiphenyl-3-yloxy)-8-azabicyclo[3.2.1]octane] | < 0.1 | 0.1 to 1 | > 1
COc1cc(Oc2ccccc2)cc(O[C@@H]2C[C@H]3CC[C@@H](C2)N3)c1F [IV.9, 3-exo-(2-Fluoro-3-methoxy-5-phenoxyphenoxy)-8-azabicyclo[3.2.1]octane] | < 0.1 | > 1 | < 0.1
Clc1cc(Oc2ccccc2)cc(O[C@@H]2C[C@H]3CC[C@@H](C2)N3)c1 [IV.19, 3-exo-(3-Chloro-5-phenoxyphenoxy)-8-azabicyclo[3.2.1]octane] | < 0.1 | > 1 | < 0.1
N#Cc1ccc(-c2cc(C#N)cc(O[C@@H]3C[C@H]4CC[C@@H](C3)N4)c2)nc1 [IX.3, exo 6-(3-(8-Azabicyclo[3.2.1]oct-3-yloxy)-5-cyanophenyl)nicotinonitrile] | > 1 | < 0.1 | > 1
FC(F)(F)c1ccc(O[C@@H]2C[C@H]3CC[C@@H](C2)N3)cc1-c1ccccc1 [VI.3, 3-exo-(6-Trifluoromethylbiphenyl-3-yloxy)-8-azabicyclo[3.2.1]octane] | > 1 | 0.1 to 1 | > 1
N#Cc1ccc(-c2cc(C#N)cc(O[C@@H]3C[C@H]4CC[C@@H](C3)N4)c2)cc1 [VI.8, exo 5-(8-Azabicyclo[3.2.1]oct-3-yloxy)-biphenyl-3,4′-dicarbonitrile] | > 1 | < 0.1 | > 1
